From patent US20200370015A1, “METHOD FOR PRODUCING ERYTHROID PROGENITOR CELLS” (ETABLISSEMENT FRANCAIS DU SANG, priority 2017, published 2020)

Assays:
Format in all cases: cell-based, human
CD34+ HTERT BMI1 BCL-XL = experiment: Amplification of erythroid progenitors from engineered cytapheresis HSCs overexpressing HTERT, BMI1 and BCL-XL (cell count); conditions: cell count on day 65
Protocol: (§1) IMDM (Biochrom), supplemented with transferrin (330 μg/mL), insulin (10 μg/mL), 5% AB serum pool (EFS) and heparin (3 U/mL). From day 0 to day 7, the medium was supplemented with IL-3 (5 ng/mL), SCF (100 ng/mL) and EPO (2 IU/mL). From day 7 until the end of the amplification of erythroblastic progenitors, the medium was supplemented with SCF (100 ng/mL) and EPO (2 IU/mL).
(§2) HSCs are obtained from cytapheresis after magnetic separation using Miltenyi CD34+ beads.
(§3) On day 0 the cells were seeded at a concentration of 100,000 cells/mL, for two successive infections with the HTERT BMI1 lentiviral supernatant and the BCL-XL retroviral supernatant or the HTERT BMI1 lentiviral supernatant and the LMO2 lentiviral supernatant; on day 3 the cells were washed 3 times and reseeded at a concentration of 10,000 cells/mL, on day 4 the cells were diluted to 1/5 in new medium. On day 7 the cells were washed and cultured at 100,000 cells/mL in new medium. On day 11 the cells were diluted to 100,000 cells/mL and seeded in a new medium. On day 14 the cells were reseeded to 300,000 cells/mL in a new medium. On day 18 the cells were diluted to 0.5 million/mL. From day 21 onwards, the cells were systematically reset to 1 million/mL each day of maintenance (i.e., twice per week).
(§4) Protocol 1: From day 0 to day 11 the cells are cultured in the basal medium. […]

CD34+ from cytapheresis = experiment: Amplification of erythroid progenitors from CD34+ HSCs derived from cytapheresis (cell count); conditions: cell count after culture
Protocol: as §1
HSCs are obtained after magnetic separation using CD34+ beads according to the protocol provided by Milenyi (see CD34 MicroBead Kit, human, from Miltenyi Biotec).
On day 0 the cells were seeded at a concentration of 10,000 cells/mL, on day 4 the cells were diluted 1/5 in new medium, on day 7 the cells were washed and cultured at 100,000 cells/mL in new medium. On day 11 the cells were diluted to 100,000 cells/mL and seeded in a new medium. On day 14 the cells were reseeded at 300,000 cells/mL in a new medium. On day 18 the cells were diluted to 0.5 million/mL. From day 21 onwards, the cells were systematically returned to 1 million/mL on each maintenance day (i.e., twice per week).
Protocol 1: From day 0 to day 11 the cells are cultured in the basal medium. On day 11 the medium used is supplemented with 253.9 μM DMOG. […]
The cells are diluted to a tenth in trypan blue solution, allowing cell mortality to be assessed if necessary.

CD34+ HTERT BMI1 LMO2 = experiment: Amplification of erythroid progenitors from engineered cytapheresis HSCs overexpressing HTERT, BMI1 and LMO2 (cell count); conditions: cell count on day 65
Protocol: as §1, §2, §3, §4

SMILES: C[C@@H]1C[C@H]2[C@@H]3CCC4=CC(=O)C=C[C@]4(C)[C@@]3(F)[C@@H](O)C[C@]2(C)[C@@]1(O)C(=O)CO [Protocol 3, dexamethasone]
- amplification of erythroid progenitors/CD34+ (CD34+ HTERT BMI1 BCL-XL) (CD34+ HTERT BMI1 BCL-XL): 5.76 · 10^5
- amplification of erythroid progenitors/CD34+ from cytapheresis on day 58 (CD34+ from cytapheresis): 2.47 · 10^7
- amplification of erythroid progenitors/CD34+ (CD34+ HTERT BMI1 LMO2) (CD34+ HTERT BMI1 LMO2): 5.12 · 10^6
